For one compound, solubility results are on record in patent US9492382B2, “Hyperbranched polyester having a hydrophobic core for solubilizing active ingredients of low solubility” (BASF SE, priority 2009, dated 2016).

Some results are limits rather than exact numbers.

The data set in a line: physchem. The conditions noted are these: pH 7, aqueous buffer, thermodynamic from solid. As to the method:
2 g of polymer were weighed out into a 50 ml glass beaker. Then 0.2 g of each active ingredient was weighed out into the batch to give a supersaturated solution. […] The mixture was then stirred at room temperature for 72 hours, using a magnetic stirrer. After a rest time of one hour, excess (i.e., unsolubilized) active ingredient was removed by filtration. The resulting clear or opaque solution was then analyzed for its active ingredient content by means of UV spectroscopy or HPLC.
The results are compiled in tables 2 and 3.

Usually solubility stands for the dissolved amount per volume that the medium holds. `Clc1ccccc1C(c1ccccc1)(c1ccccc1)n1ccnc1` [Clotrimazole] yielded a solubility at 72 h of under 100 µg/mL.
